Laboratory results as given in patent EP0435725B1, “DNA having the genetic information of phospholipase D and its use” (Asahi Kasei Kogyo Kabushiki Kaisha, priority 1989, dated 1991).

Test system: phospholipase D
Test: Substrate specificity of phospholipase D (choline release, choline oxidase/peroxidase colorimetry at 500 nm)
Type: biochemical, Streptomyces chromofuscus
Settings: substrate emulsion 10 mM, 0.1 ml; 37°C, 10 minutes, pH 8.0; relative to activity on lysolecithin as 100
Experimental: To the reaction mixture having a composition as above was added 0.05 ml of the enzyme solution. After reaction it 37°C for 10 minutes, the mixture was boiled for 5 minutes to stop the reaction. The reaction solution was cooled to 37°C. Then, 0.1 ml of 4-aminoantipyrine (3 mg/ml), 0.1 ml of Phenol (2 mg/ml), 0.1 ml of peroxidase (2 U/ml), 0.1 ml of choline oxidase (30 U/ml) and 0.1 ml of water were added to the solution, the reaction was conducted at 37°C for 20 minutes before adding 2 ml of 1% Triton X100 to the reaction mixture for measuring the absorbance at 500 nm. It is defined that 1 Unit (U) of phospholipase D has an enzyme activity of producing 1 […] of choline. The enzyme activity is calculated from the following equation: U/ml = ΔA₅₀₀ x 0.55 [formula] wherein ΔA₅₀₀ denotes the absorbance at 500 nm.
The same procedure as described above for the reaction solution for the measurement of the activity was repeated except that emulsions (10 mM, 0.1 ml) of lecithin, lysolecithin and sphingomyelin, respectively, as substrates were used. The amount of choline was determined, and the relative enzyme activities are calculated in terms of the enzyme activity to lysolecithin as 100.

Substance | Relative Activity [%]
Lysolecithin | 100
Sphingomyelin | 19
phosphatidylcholine [Lecithin] | 51
